Assay results as given in patent publication US20030105300A1, “Tumor targeted photodiagnostic-phototherapeutic agents” (MALLINCKRODT INC., priority 2001, published 2003).

Assays:
Design in all cases: species or system male Lewis rats
[1] = system: DSL 6/A (pancreatic) tumor; test: In vivo fluorescence imaging of tumor-bearing rats with indocyanine green (DSL 6/A); conditions: DSL 6/A tumor, left flank; 0.5 ml of 0.42 mg/ml ICG in saline, tail vein; images at 2 and 30 minutes
Description: (§1) A non-invasive in vivo fluorescence imaging apparatus was employed to assess the efficacy of indocyanine green (ICG) in three different rat tumor cell lines of the inventive contrast agents developed for tumor detection in animal models. A LaserMax Inc. laser diode of nominal wavelength 780 nm and nominal power of 40 mW was used. The detector was a Princeton Instruments model RTE/CCD-1317-K/2 CCD camera with a Rodenstock 10 mm F2 lens (stock #542.032.002.20) attached. An 830 nm […] (CVI Laser Corp., part #F10-830-4-2) was mounted in front of the CCD input lens, such that only emitted fluorescent light from the contrast agent was imaged.
(§2) Three tumor cell lines, DSL 6/A (pancreatic), Dunning R3327-H (prostate), and CA20948 (pancreatic), which are rich in somatostatin (SST-2) receptors were induced into male Lewis rats by solid implant technique in the left flank area (Achilefu et al., Invest. Radiology, 2000, pp. 479-485). Palpable masses were detected nine days post implant.

[2] = system: CA20948 (pancreatic) tumor; test: In vivo fluorescence imaging of tumor-bearing rats with indocyanine green (CA20948)
Description: as §1, §2

[3] = system: Dunning R3327-H (prostate) tumor; test: In vivo fluorescence imaging of tumor-bearing rats with indocyanine green (Dunning R3327-H); conditions: left flank, 0.5 ml of 0.42 mg/ml ICG in saline, tail vein, images at 2 and 30 minutes
Description: as §1, §2

CC1(C)C(/C=C/C=C/C=C/C=C2\N(CCCCS(=O)(=O)O)c3ccc4ccccc4c3C2(C)C)=[N+](CCCCS(=O)(=O)[O-])c2ccc3ccccc3c21 [ICG, indocyanine green]
perfusion of the agent into the tumor (fluorescence images) [1]: slow perfusion of the agent into the tumor over time
non-specific localization into the tumor line ([2]; compared to the other two lines): no non-specific localization
perfusion of the agent into the tumor (fluorescence images) ([2]; left flank, 0.5 ml of 0.42 mg/ml ICG in saline, tail vein, images at 2 and 30 minutes): only a slight and transient perfusion that was cleared after only 30 minutes post injection
perfusion of the agent into the tumor (fluorescence images) [3]: slow perfusion of the agent into the tumor over time
